Results as given in ChEMBL document CHEMBL1201862, “PubChem BioAssay data set” (2004).
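Interpolation was linear, between the two tested concentrations surrounding the appropriate level; five concentrations were tested over 48 hours in 96-well plates. At the GI50, growth is halved.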 Active and inactive are the calls of the source. No stated cut-off is given here; in the data, active = GI50 up to about 1.1 µM and inactive = higher.

Legend:
Assay in all cases: inhibition of tumour cell growth, NCI panel, 48 h
DLD-1 = tested on: DLD-1
M19-MEL = tested on: M19-MEL
SNB-78 = tested on: SNB-78
KM-20L2 = tested on: KM-20L2
BT-549 = tested on: BT-549
HOP-18 = tested on: HOP-18
Hs-578T = tested on: Hs-578T
XF498 = tested on: XF498

Row | SMILES | GI50 (DLD-1) | GI50 (M19-MEL) | GI50 (SNB-78) | GI50 (KM-20L2) | GI50 (BT-549) | GI50 (HOP-18) | GI50 (Hs-578T) | GI50 (XF498)
1 | CC1=CCC[C@@]2(C)C(CC[C@@H]2C(C)/C=C/C(C)C)c2ccc(cc2C(=O)O)C[C@@H](O)CC1 (some centres not stated) | 3.67 µM (inactive) | 12.7 µM (inactive) | 16.1 µM (inactive) | – | – | – | – | –
2 | Cc1ccc(C(=O)Nc2ccccc2)cc1/N=N/N(C)C | > 100 µM (inactive) | > 100 µM (inactive) | > 100 µM (inactive) | > 10 µM (inactive) | – | – | – | –
3 | O=C(O)CC/C(=N\Nc1nsc2ccccc12)c1ccc(Cl)cc1 | – | 35 µM (inactive) | 31.6 µM (inactive) | 41.1 µM (inactive) | 25.1 µM (inactive) | 4.19 µM (inactive) | 33.3 µM (inactive) | –
4 | O=C/C=C/c1ccco1 | – | – | – | – | > 100 µM (inactive) | – | > 100 µM (inactive) | –
5 | C=CC(C)(C)n1cc(C2=C(O)C(=O)C(c3c(CC=C(C)C)[nH]c4ccccc34)=C(O)C2=O)c2ccccc21 | – | – | – | – | 0.571 µM (active) | – | 1.43 µM (inactive) | –
6 | CCOC(=O)c1c(O)cc(=O)[nH]c1N1CCOCC1 | – | – | – | – | > 100 µM (inactive) | – | – | –
7 | COC(=O)NC(Cc1ccccc1)NC(=O)OC(C)(C)C (configuration not stated) | – | – | – | – | > 100 µM (inactive) | – | > 100 µM (inactive) | –
8 | COc1cccc(C(NC2=NCCC=N2)c2cc3c(cc2O)OCO3)c1O (configuration not stated) | – | – | – | – | 16.7 µM (inactive) | – | 25.4 µM (inactive) | –
9 | COC(=O)C1N=CSCC1(C)O (configuration not stated) | > 100 µM (inactive) | > 100 µM (inactive) | > 100 µM (inactive) | > 100 µM (inactive) | – | > 100 µM (inactive) | – | > 100 µM (inactive)
10 | C=C(C)C(O)C(O)c1c(OC)ccc2ccc(=O)oc12 (configuration not stated) | – | – | – | – | > 100 µM (inactive) | – | > 100 µM (inactive) | –
11 | CC(CN(C)C)C(O)(c1ccccc1)c1ccccc1 (configuration not stated) | – | – | – | – | > 100 µM (inactive) | – | > 100 µM (inactive) | –
12 | CC1(C)C2CCC1(C)C(N/C(Sc1ccccc1)=C(/C(Cl)=C(Cl)Cl)[N+](=O)[O-])C2 (configuration not stated) | – | – | – | – | 12.4 µM (inactive) | – | – | –
13 | O=[N+]([O-])c1nccn1CC(O)c1ccccc1 (configuration not stated) | – | – | – | > 100 µM (inactive) | – | > 100 µM (inactive) | – | > 100 µM (inactive)
14 | N#CC(C#N)=C(N)/C(C#N)=C/c1ccc(O)c(O)c1 | 71.3 µM (inactive) | > 100 µM (inactive) | > 100 µM (inactive) | 25.1 µM (inactive) | > 100 µM (inactive) | – | 48.4 µM (inactive) | > 100 µM (inactive)
15 | Cc1ncc([N+](=O)[O-])n1CCNC(=O)Cn1ccnc1[N+](=O)[O-] | – | – | – | – | > 100 µM (inactive) | – | > 100 µM (inactive) | –
16 | COc1ccc(-c2cc(=O)c3c(OC)c(OC)c(OC)c(OC)c3o2)cc1 [TANGERETIN] | – | – | – | – | 58.9 µM (inactive) | – | 34.2 µM (inactive) | –
